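Results reflect a 48-hour exposure of cells in 96-well plates to compound at five concentrations. GI50 = concentration required for 50% inhibition of growth. TGI is the concentration that stops growth completely.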
Tests used:
Test in all cases: growth of human tumour cells (NCI), 48 h
[1] = tested on: HCT-15 colon
[2] = tested on: HS 578T breast
[3] = tested on: HT29 colon
[4] = tested on: K-562 leukemia
[5] = tested on: MCF7 breast
[6] = tested on: OVCAR-4 ovarian
[7] = tested on: OVCAR-5 ovarian
[8] = tested on: TK-10 renal
[9] = tested on: SK-MEL-2 melanoma
[10] = tested on: SNB-75 CNS

For COc1ccc(-c2ccc(/C=N/n3c(COc4ccc(Cl)cc4Cl)n[nH]c3=S)o2)c([N+](=O)[O-])c1, the GI50 [1] was 28.6 µM, the TGI [1] was over 100 µM and the GI50 [2] was 40.8 µM. The TGI [2] was over 100 µM, the GI50 [3] was 34.2 µM and the TGI [3] was 79.6 µM. For the same compound, the GI50 [4] was 19.3 µM, the TGI [4] was 47.4 µM and the GI50 [5] was 15.9 µM. For the same compound, the TGI [5] was 41.7 µM, the GI50 [6] was 28.9 µM and the TGI [6] was 72.7 µM. It also gave a GI50 [7] of 21.3 µM, a TGI [7] of 47.6 µM and a GI50 [8] of 16.8 µM. For the same compound, the TGI [8] was 49.2 µM.

O=C([O-])c1ccccc1Nc1ccccn1.O=C([O-])c1ccccc1Nc1ccccn1.[Ni+2] was tested, and the GI50 [1] was over 100 µM, the TGI [1] was over 100 µM and the GI50 [3] was over 100 µM. For the same compound, the TGI [3] was over 100 µM, the GI50 [4] was 49.5 µM and the TGI [4] was over 100 µM. For the same compound, the GI50 [6] was over 100 µM, the TGI [6] was over 100 µM and the GI50 [7] was 75.6 µM. For the same compound, the TGI [7] was over 100 µM, the GI50 [9] was over 100 µM and the TGI [9] was over 100 µM.

Cc1cccc(NC(=O)CC(=O)N2N=C(N(CCC#N)c3ccc(Cl)cc3)CC2c2ccccc2)c1 (stereo not given) was tested, and the TGI [3] was over 100 µM, the TGI [4] was over 100 µM and the TGI [6] was over 100 µM. The TGI [7] was over 100 µM, the TGI [10] was over 100 µM and the TGI [8] was over 100 µM.

Compound CCCc1[nH]nc(CCC(=O)N(Cc2ccccc2)Cc2ccccc2)c1CC has a TGI [1] of over 100 µM, a TGI [3] of over 100 µM and a TGI [4] of over 100 µM. For the same compound, the TGI [6] was over 100 µM, the TGI [7] was over 100 µM and the TGI [9] was over 100 µM. It also gave a TGI [10] of over 100 µM and a TGI [8] of over 100 µM.

CNS(=O)(=O)NN(C)S(=O)(=O)c1ccc(F)cc1 gave a TGI [1] of over 100 µM, a TGI [3] of over 100 µM and a TGI [4] of over 100 µM. It also gave a TGI [6] of over 100 µM, a TGI [7] of over 100 µM and a TGI [9] of over 100 µM. The TGI [10] was over 100 µM and the TGI [8] was over 100 µM.

For CC1=NCCc2c1[nH]c1cc(O)ccc21, the TGI [1] was over 100 µM, the TGI [3] was over 100 µM and the TGI [4] was over 100 µM. The TGI [6] was over 100 µM, the TGI [7] was over 100 µM and the TGI [9] was over 100 µM. It also gave a TGI [10] of over 100 µM and a TGI [8] of over 100 µM.

For COc1ccccc1NC(=O)C1=C(C)NC(C)=C(C(=O)Nc2ccccc2OC)C1c1ccccc1F, the TGI [1] was over 100 µM, the TGI [3] was over 100 µM and the TGI [4] was over 100 µM. It also gave a TGI [6] of over 100 µM, a TGI [7] of over 100 µM and a TGI [9] of over 100 µM. The TGI [10] was 62.4 µM and the TGI [8] was over 100 µM.

In the case of COC(=O)CCC1CCc2c(OC)ccc(O)c2C1=O (stereo not given), the TGI [1] is reported as over 100 µM, the TGI [3] is reported as over 100 µM and the TGI [4] is reported as over 100 µM. The TGI [6] was over 100 µM, the TGI [9] was over 100 µM and the TGI [10] was over 100 µM. For the same compound, the TGI [8] was over 100 µM.

COc1nc(NC2OCC(OC(C)=O)C(OC(C)=O)C2OC(C)=O)c(N=CC=Nc2c(NC3OCC(OC(C)=O)C(OC(C)=O)C3OC(C)=O)nc(OC)n(C)c2=O)c(=O)n1C (stereo not given) was tested, and the TGI [1] was over 100 µM, the TGI [3] was over 100 µM and the TGI [4] was over 100 µM. It also gave a TGI [6] of over 100 µM, a TGI [7] of over 100 µM and a TGI [9] of over 100 µM. The TGI [10] was over 100 µM and the TGI [8] was over 100 µM.

Compound COCCN1C2=CCCCC2=Nc2c1nc(N)[nH]c2=O has a TGI [1] of over 100 µM, a TGI [3] of over 100 µM and a TGI [4] of over 100 µM. For the same compound, the TGI [7] was over 100 µM, the TGI [10] was over 100 µM and the TGI [8] was over 100 µM.

In the case of C[N+](C)(C)CC(=O)N/N=C(/Cc1nc2c3c(ccc2[nH]c1=O)C(=O)c1ccccc1C3=O)C(=O)Nc1ccc(Cl)c(Cl)c1, the TGI [3] is reported as over 100 µM, the TGI [4] is reported as over 100 µM and the TGI [6] is reported as over 100 µM. It also gave a TGI [7] of over 100 µM, a TGI [9] of over 100 µM and a TGI [8] of over 100 µM.

In the case of Nc1cc2cccc[n+]2c2cc(Cl)ccc12, the GI50 [2] is reported as 16.6 µM, the TGI [2] is reported as 51.4 µM and the GI50 [3] is reported as 37.4 µM. The GI50 [4] was 3.01 µM, the TGI [4] was 22 µM and the GI50 [5] was 17.9 µM. The TGI [5] was 63 µM, the GI50 [6] was 8.44 µM and the TGI [6] was 38.9 µM. It also gave a GI50 [7] of 25.7 µM, a GI50 [9] of 0.0664 µM and a TGI [9] of 18.4 µM. It also gave a GI50 [10] of 21.5 µM, a TGI [10] of 62.7 µM and a GI50 [8] of 59.7 µM.

In the case of Cc1ccc(C(=O)O/N=C2/CCC/C2=C\c2ccccc2)cc1, the TGI [1] is reported as over 100 µM, the TGI [3] is reported as over 100 µM and the TGI [4] is reported as over 100 µM. It also gave a TGI [6] of over 100 µM, a TGI [7] of over 100 µM and a TGI [9] of over 100 µM. The TGI [10] was over 100 µM and the TGI [8] was over 100 µM.

Compound COC(=O)c1csnn1 has a TGI [1] of over 100 µM, a TGI [3] of over 100 µM and a TGI [4] of over 100 µM. For the same compound, the TGI [8] was over 100 µM.

In the case of COc1ccc2nc3cc([N+](=O)[O-])ccc3c(NCCCCCN(C)C)c2c1, the GI50 [1] is reported as 1.31 µM, the GI50 [2] is reported as 0.376 µM and the TGI [2] is reported as 4.66 µM. It also gave a GI50 [3] of 0.0643 µM, a TGI [3] of 0.38 µM and a GI50 [4] of 0.0255 µM. It also gave a TGI [4] of 0.353 µM, a GI50 [5] of 0.0514 µM and a TGI [5] of 1.04 µM. For the same compound, the GI50 [6] was 0.14 µM, the TGI [6] was 0.546 µM and the GI50 [7] was 0.497 µM. It also gave a TGI [7] of 3.92 µM, a GI50 [9] of 0.0208 µM and a TGI [9] of 0.214 µM. The GI50 [10] was 0.247 µM and the TGI [10] was 1.1 µM.

For Cc1occc1C(=S)Nc1ccc(Cl)c(COC(C)(C)C)c1, the TGI [1] was 34.5 µM, the TGI [2] was 49.6 µM and the TGI [3] was 29.6 µM. It also gave a TGI [5] of 31.6 µM, a TGI [6] of 33.1 µM and a TGI [7] of 50.6 µM. The TGI [9] was 33.1 µM and the TGI [8] was 34.8 µM.

In the case of CC(C)C(=O)Nc1nc2nc[nH]c2c(=O)[nH]1, the TGI [1] is reported as over 100 µM, the TGI [3] is reported as over 100 µM and the TGI [4] is reported as over 100 µM. The TGI [6] was over 100 µM, the TGI [7] was over 100 µM and the TGI [9] was over 100 µM. For the same compound, the TGI [10] was over 100 µM and the TGI [8] was over 100 µM.

In the case of COC(=O)CCC(NC(=S)N/N=C(\C)c1nccs1)C(=O)OC (stereo not given), the TGI [1] is reported as over 100 µM, the TGI [3] is reported as over 100 µM and the TGI [4] is reported as over 100 µM. It also gave a TGI [6] of over 100 µM, a TGI [7] of over 100 µM and a TGI [9] of over 100 µM. For the same compound, the TGI [10] was over 100 µM and the TGI [8] was over 100 µM.

With CN(C)/C=C/c1nnc([N+](=O)[O-])s1 the TGI [1] was 32.2 µM, the TGI [2] was 42.6 µM and the TGI [3] was 14.6 µM. It also gave a TGI [5] of 8.01 µM, a TGI [9] of 39.3 µM and a TGI [10] of 66.6 µM. The TGI [8] was 58.5 µM.

With O=Cc1cn(C(=O)c2ccccc2)c2ccccc12 the TGI [1] was over 100 µM, the TGI [3] was over 100 µM and the TGI [4] was over 100 µM. The TGI [6] was over 100 µM, the TGI [7] was over 100 µM and the TGI [9] was over 100 µM. It also gave a TGI [10] of over 100 µM and a TGI [8] of over 100 µM.

In the case of CC1(C)SC2C(NC(=O)C(N)c3ccccc3)C(=O)N2C1C(=O)O (stereo not given), the TGI [1] is reported as over 100 µM, the TGI [2] is reported as over 100 µM and the TGI [3] is reported as over 100 µM. It also gave a TGI [5] of over 100 µM, a TGI [7] of over 100 µM and a TGI [9] of over 100 µM. It also gave a TGI [10] of over 100 µM and a TGI [8] of over 100 µM.

With CCCCCCCCCc1cc(=O)c2ccc(OCc3ccccc3)cc2o1 the TGI [1] was over 100 µM, the TGI [3] was over 100 µM and the TGI [4] was over 100 µM. It also gave a TGI [6] of over 100 µM, a TGI [7] of over 100 µM and a TGI [9] of over 100 µM. For the same compound, the TGI [10] was 72.3 µM and the TGI [8] was over 100 µM.

With O=C(O)c1ccc([Se][Se]c2ccc(C(=O)O)cc2)cc1 the TGI [1] was over 100 µM, the TGI [6] was 49.1 µM and the TGI [7] was 66.8 µM. For the same compound, the TGI [9] was 63.2 µM, the TGI [10] was 88.3 µM and the TGI [8] was 54.1 µM.

O=c1c2c([nH]c3cc4c(cc13)OCO4)-c1ccccc1CC2 showed a TGI [1] of over 100 µM, a TGI [3] of over 100 µM and a TGI [4] of over 100 µM. For the same compound, the TGI [6] was over 100 µM, the TGI [9] was over 100 µM and the TGI [10] was over 100 µM. The TGI [8] was over 100 µM.

Source: PubChem BioAssay (NCI)
